Common to all, as to assay: biochemical
Holding throughout (format): biochemical

The target in test [1] is 363 human kinases (including Aurora A/B/C) (Homo sapiens, UniProt Q13164). As to conditions: ERK5/MAPK7, [ATP] 5 µM; for remaining activity at 0.1 µM: 100 nM; for remaining activity at 0.1 µM / remaining activity at 0.5 µM: read-out: % Enzyme Activity (relative to DMSO controls).
Excerpt: (§1) However, the Aurora A/B selectivity ratios derived from our in vitro and in vivo data can be compared to prioritize inhibitors.
For test [2], the target named is T1, 363 human kinases (including Aurora A/B/C) (Homo sapiens, UniProt Q02156).
T1 sequence (Q02156 1-737): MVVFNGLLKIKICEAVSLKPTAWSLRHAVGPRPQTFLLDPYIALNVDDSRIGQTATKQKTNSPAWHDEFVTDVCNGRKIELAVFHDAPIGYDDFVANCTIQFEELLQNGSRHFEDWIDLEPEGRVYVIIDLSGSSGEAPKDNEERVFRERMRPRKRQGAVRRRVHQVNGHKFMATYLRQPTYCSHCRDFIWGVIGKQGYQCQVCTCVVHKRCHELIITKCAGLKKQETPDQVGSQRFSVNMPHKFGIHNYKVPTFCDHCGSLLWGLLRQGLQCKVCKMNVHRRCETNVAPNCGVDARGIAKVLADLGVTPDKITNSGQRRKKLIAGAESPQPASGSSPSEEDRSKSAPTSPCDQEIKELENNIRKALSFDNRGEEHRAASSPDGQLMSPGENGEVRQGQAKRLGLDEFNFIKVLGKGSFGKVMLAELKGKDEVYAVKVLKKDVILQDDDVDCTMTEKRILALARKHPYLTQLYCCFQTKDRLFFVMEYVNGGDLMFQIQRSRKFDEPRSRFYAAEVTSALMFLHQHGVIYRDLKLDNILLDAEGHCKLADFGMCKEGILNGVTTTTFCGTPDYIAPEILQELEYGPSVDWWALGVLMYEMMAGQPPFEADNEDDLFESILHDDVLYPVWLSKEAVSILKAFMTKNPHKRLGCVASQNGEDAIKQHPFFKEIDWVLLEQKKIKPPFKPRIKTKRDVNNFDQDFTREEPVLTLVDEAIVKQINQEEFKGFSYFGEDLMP
As to conditions: PKCepsilon; for remaining activity at 0.1 µM: 100 nM; for remaining activity at 0.1 µM / remaining activity at 0.5 µM: read-out: % Enzyme Activity (relative to DMSO controls).
Excerpt: as §1

Test [3] deals with 363 human kinases (including Aurora A/B/C) (Homo sapiens, UniProt Q9H3Y6). To be noted: SRMS; for remaining activity at 0.1 µM: 100 nM; for remaining activity at 0.1 µM / remaining activity at 0.5 µM: read-out: % Enzyme Activity (relative to DMSO controls).
363 human kinases (including Aurora A/B/C) (Homo sapiens, UniProt Q9H3Y6), sequence (Q9H3Y6 whole entry): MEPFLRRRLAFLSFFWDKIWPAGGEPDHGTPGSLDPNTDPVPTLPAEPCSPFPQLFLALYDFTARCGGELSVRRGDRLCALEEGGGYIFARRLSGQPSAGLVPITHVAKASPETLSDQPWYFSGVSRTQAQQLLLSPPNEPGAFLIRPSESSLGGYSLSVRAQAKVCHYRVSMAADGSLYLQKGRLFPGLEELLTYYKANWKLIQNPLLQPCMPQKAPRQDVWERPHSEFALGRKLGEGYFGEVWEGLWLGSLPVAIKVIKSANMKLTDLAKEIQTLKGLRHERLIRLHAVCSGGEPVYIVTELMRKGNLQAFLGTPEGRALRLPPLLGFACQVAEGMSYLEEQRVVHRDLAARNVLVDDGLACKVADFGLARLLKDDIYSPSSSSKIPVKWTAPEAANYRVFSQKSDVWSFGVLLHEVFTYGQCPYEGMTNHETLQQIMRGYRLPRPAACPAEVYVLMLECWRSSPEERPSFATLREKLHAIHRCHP
Excerpt: as §1
Test [4] has as its target T2, 363 human kinases (including Aurora A/B/C) (Homo sapiens, UniProt P45985).
T2 sequence (P45985 1-399): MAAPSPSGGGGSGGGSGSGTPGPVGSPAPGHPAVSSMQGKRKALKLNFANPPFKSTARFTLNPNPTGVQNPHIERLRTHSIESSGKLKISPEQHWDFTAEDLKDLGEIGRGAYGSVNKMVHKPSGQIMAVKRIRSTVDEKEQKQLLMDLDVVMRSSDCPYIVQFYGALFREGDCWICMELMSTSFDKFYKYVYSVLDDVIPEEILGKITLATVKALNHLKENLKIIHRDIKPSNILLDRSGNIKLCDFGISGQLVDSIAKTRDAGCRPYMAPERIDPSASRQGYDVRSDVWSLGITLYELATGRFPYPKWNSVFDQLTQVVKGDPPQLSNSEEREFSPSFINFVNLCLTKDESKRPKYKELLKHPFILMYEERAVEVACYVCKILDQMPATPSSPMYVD
As to conditions: MKK4; for remaining activity at 0.1 µM: 100 nM; for remaining activity at 0.1 µM / remaining activity at 0.5 µM: read-out: % Enzyme Activity (relative to DMSO controls).
Excerpt: as §1

Test [5] deals with 363 human kinases (including Aurora A/B/C) (Homo sapiens, UniProt O75676). As to conditions: MSK2/RPS6KA4; for remaining activity at 0.1 µM: 100 nM; for remaining activity at 0.1 µM / remaining activity at 0.5 µM: read-out: % Enzyme Activity (relative to DMSO controls).
363 human kinases (including Aurora A/B/C) (Homo sapiens, UniProt O75676), sequence (O75676 whole entry): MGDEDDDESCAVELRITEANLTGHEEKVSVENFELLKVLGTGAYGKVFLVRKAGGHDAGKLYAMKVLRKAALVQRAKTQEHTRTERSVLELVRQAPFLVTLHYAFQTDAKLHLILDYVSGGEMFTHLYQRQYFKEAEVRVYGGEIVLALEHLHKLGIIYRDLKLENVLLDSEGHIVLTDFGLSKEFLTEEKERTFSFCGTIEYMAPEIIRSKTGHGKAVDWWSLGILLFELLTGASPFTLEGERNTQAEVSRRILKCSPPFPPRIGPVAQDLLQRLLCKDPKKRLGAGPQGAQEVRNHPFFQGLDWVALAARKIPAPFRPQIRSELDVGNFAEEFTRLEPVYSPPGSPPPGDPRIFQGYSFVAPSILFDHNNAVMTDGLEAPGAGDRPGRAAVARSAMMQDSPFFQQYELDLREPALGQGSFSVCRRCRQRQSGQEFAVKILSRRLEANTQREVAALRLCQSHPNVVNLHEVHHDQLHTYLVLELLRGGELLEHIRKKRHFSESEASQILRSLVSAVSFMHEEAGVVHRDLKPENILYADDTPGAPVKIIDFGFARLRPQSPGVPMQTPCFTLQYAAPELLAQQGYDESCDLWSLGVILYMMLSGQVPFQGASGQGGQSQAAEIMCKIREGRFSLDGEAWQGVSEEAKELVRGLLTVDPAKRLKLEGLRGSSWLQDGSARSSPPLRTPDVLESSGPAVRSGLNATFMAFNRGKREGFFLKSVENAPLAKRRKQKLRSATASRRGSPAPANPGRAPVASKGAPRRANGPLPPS
Excerpt: as §1
Test [6] addresses T3, 363 human kinases (including Aurora A/B/C) (Homo sapiens, UniProt Q8IW41).
T3 sequence (Q8IW41 1-473): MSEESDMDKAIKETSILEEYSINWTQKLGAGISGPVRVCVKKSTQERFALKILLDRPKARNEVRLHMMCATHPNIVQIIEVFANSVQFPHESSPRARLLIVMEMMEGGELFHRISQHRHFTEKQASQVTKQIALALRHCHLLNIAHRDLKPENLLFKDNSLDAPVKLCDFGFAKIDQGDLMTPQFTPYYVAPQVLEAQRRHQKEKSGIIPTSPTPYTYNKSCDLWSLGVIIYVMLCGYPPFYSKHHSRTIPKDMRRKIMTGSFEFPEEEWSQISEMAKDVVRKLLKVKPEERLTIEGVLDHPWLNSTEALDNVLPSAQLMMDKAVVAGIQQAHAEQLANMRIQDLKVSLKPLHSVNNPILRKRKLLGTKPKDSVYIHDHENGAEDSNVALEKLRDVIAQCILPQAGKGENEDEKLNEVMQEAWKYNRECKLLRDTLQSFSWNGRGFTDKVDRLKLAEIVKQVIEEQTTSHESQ
As to conditions: MAPKAPK5/PRAK; for remaining activity at 0.1 µM: 100 nM; for remaining activity at 0.1 µM / remaining activity at 0.5 µM: read-out: % Enzyme Activity (relative to DMSO controls).
Excerpt: as §1

Test [7] deals with 363 human kinases (including Aurora A/B/C) (Homo sapiens, UniProt Q07912). As to conditions: ACK1, [ATP] 100 µM; for remaining activity at 0.1 µM: 100 nM; for remaining activity at 0.1 µM / remaining activity at 0.5 µM: read-out: % Enzyme Activity (relative to DMSO controls).
363 human kinases (including Aurora A/B/C) (Homo sapiens, UniProt Q07912), sequence (Q07912 whole entry): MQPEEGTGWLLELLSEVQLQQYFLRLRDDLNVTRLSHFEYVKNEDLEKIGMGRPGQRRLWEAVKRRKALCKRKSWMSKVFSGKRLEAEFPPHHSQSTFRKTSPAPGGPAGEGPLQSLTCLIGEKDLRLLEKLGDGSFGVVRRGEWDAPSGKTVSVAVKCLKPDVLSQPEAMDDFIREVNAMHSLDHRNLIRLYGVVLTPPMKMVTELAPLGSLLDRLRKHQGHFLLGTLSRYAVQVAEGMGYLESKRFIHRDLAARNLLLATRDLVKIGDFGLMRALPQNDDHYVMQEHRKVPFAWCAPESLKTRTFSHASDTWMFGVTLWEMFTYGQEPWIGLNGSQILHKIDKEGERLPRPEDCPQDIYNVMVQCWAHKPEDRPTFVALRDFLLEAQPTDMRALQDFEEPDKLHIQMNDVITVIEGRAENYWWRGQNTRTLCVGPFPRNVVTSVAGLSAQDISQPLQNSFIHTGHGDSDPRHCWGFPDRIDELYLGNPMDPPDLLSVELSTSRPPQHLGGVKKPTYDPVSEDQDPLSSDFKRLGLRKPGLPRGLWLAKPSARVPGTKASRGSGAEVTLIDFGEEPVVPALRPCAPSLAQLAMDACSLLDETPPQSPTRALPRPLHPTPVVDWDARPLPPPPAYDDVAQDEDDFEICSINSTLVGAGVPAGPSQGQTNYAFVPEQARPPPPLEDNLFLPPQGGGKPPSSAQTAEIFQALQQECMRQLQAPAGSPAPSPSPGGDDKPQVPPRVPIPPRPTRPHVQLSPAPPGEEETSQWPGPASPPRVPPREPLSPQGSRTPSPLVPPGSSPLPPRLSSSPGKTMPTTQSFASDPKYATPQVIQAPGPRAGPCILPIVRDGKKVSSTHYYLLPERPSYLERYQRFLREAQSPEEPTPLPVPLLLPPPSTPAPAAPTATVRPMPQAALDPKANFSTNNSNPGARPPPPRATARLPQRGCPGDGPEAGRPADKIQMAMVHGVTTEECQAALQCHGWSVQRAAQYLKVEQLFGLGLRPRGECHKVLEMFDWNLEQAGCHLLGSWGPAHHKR
Excerpt: as §1
The target in test [8] is T4, 363 human kinases (including Aurora A/B/C) (Homo sapiens, UniProt O14920).
T4 sequence (O14920 1-756): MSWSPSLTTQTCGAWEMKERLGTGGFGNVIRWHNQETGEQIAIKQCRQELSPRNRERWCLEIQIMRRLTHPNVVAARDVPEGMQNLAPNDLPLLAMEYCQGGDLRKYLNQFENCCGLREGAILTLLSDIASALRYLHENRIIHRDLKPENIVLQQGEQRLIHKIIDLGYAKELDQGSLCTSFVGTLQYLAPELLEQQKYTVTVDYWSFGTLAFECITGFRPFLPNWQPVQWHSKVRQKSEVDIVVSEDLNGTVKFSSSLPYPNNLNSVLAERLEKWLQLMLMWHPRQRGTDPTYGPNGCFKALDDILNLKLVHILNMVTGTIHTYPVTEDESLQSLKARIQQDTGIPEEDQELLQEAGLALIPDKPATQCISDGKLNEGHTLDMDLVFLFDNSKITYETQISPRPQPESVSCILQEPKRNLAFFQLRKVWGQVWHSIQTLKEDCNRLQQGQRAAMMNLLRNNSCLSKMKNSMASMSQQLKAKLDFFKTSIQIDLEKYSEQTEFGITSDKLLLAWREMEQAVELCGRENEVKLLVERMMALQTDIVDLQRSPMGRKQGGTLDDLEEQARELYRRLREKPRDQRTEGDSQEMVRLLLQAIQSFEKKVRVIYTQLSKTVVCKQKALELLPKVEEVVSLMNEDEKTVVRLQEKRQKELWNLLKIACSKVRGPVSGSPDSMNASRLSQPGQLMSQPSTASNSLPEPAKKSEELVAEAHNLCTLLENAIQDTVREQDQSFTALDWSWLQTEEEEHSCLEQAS
To be noted: IKKb/IKBKB; for remaining activity at 0.1 µM: 100 nM; for remaining activity at 0.1 µM / remaining activity at 0.5 µM: read-out: % Enzyme Activity (relative to DMSO controls).
Excerpt: as §1

363 human kinases (including Aurora A/B/C) (Homo sapiens, UniProt Q13164), sequence (Q13164 whole entry): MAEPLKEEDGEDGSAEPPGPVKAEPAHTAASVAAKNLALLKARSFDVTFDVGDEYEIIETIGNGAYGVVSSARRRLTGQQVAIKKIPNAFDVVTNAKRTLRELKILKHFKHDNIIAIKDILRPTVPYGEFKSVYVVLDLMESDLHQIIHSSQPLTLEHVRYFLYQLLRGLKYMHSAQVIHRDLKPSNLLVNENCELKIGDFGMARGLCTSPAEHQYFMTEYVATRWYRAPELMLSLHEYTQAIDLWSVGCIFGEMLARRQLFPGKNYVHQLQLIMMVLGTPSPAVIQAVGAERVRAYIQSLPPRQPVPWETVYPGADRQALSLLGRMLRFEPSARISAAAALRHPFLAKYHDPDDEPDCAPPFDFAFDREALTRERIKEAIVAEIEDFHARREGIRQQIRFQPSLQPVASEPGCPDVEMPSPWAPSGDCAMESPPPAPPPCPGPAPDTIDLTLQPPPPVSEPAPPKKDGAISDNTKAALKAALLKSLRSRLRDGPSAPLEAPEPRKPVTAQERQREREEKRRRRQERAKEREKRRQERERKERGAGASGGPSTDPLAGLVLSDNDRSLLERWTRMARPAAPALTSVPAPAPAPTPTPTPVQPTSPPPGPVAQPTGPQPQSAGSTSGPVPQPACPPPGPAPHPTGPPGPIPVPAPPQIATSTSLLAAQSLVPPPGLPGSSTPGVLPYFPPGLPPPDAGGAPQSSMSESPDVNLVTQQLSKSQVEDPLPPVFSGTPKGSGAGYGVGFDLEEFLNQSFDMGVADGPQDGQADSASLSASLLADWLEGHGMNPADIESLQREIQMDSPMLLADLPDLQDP

In the case of `CCn1cc(-c2ccnc3[nH]c(-c4cccc(CN(C)C)c4)cc23)c(-c2ccc(NC(=O)N(C)C)cc2)n1` [GSK1070916], the remaining activity at 0.1 µM was found to be 97.6% in test [1]; 102% in test [2]; 95% in test [3]; 90.1% in test [4]; 103% in test [5]; 99.4% in test [6]. Moreover, the values for the remaining activity at 0.1 µM in test [7] and in test [8] were 83.9% and 126%, respectively.

On to `O=C(O)[C@]1(Cc2cccc(Nc3nccs3)n2)CC[C@@H](Oc2cccc(Cl)c2F)CC1` [MK-5108], for which the remaining activity at 0.1 µM in test [1] stood at 95.3%; in test [2], 111%; in test [3] it was 95.1%; in test [4], 95.7%; in test [5] it was 103%; in test [6], 101%. Moreover, the remaining activity at 0.1 µM worked out at 15.8% in test [7] and 103% in test [8]. The remaining activity at 0.5 µM in test [1] (500 nM) was 95.4%; in test [2] (500 nM) it was 101%; in test [3] (500 nM) it was 94.8%; in test [4] (500 nM), 97.7%; in test [5] (500 nM), 98.8%; in test [6] (500 nM) it was 101%. Also, the remaining activity at 0.5 µM in test [7] (500 nM) turned out to be 1.62%; in test [8] (500 nM) it was 128%.

As to `O=C(c1cccc(Cl)c1F)N1CCN(Cc2cccc(Nc3nccs3)n2)CC1` [MK-8745], the “% Enzyme Activity (relative to DMSO controls)” value in test [1] (500 nM) amounted to 88.71%; in test [2] (500 nM) it was 120.37%; in test [3] (500 nM), 96.62%; in test [4] (500 nM) it was 89.78%; in test [5] (500 nM), 96.01%; in test [6] (500 nM), 102.03%. Besides, the “% Enzyme Activity (relative to DMSO controls)” value in test [7] (500 nM) came out at 50.10%; in test [8] (500 nM), 112.10%. In addition, the remaining activity at 0.5 µM in test [1] (500 nM) was 89%; in test [2] (500 nM), 120%; in test [3] (500 nM) it was 98.4%; in test [4] (500 nM) it was 90.9%; in test [5] (500 nM), 96.1%; in test [6] (500 nM) it was 103%. Further, the remaining activity at 0.5 µM worked out at 51.9% in test [7] (500 nM) and 119% in test [8] (500 nM).

Values taken from article PMC4685510, “A Cell Biologist’s Field Guide to Aurora Kinase Inhibitors” (Frontiers in Oncology, 2015).
